Laboratory results published in ChEMBL document CHEMBL1140573, “Potent achiral agonists of the ghrelin (growth hormone secretagogue) receptor. Part I: Lead identification” (Bioorg Med Chem Lett, 2007).
Values after ≈ are worked out from the molar mass of the structure shown. Active and inactive are the calls of the source. No cut-off for these calls is given here.

What was measured:
[1] = biological target: T1, Growth hormone secretagogue receptor type 1 (Homo sapiens, UniProt Q92847); assay: Agonist activity at GSHR by FLIPR assay; format: functional
[2] = biological target: T1, Growth hormone secretagogue receptor type 1; assay: Intrinsic activity at GSHR relative to human ghrelin; format: functional
[3] = biological target: 5-hydroxytryptamine receptor 1B (Homo sapiens, UniProt P28222); assay: Binding affinity at 5HT1B receptor
[4] = biological target: Motilin receptor (Homo sapiens) (UniProt O43193); assay: Activity at motilin GPR38 receptor
[5] = Distribution coefficient, log D at pH 7.4; format: physicochemical; conditions: octanol/water
[6] = Aqueous solubility at pH 7.4; format: physicochemical
[7] = test system: Liver microsomes; assay: Metabolic stability in human liver microsomes; format: ADME, Microsome
[8] = test system: Liver microsomes; assay: Metabolic stability in rat liver microsomes; format: ADME, Microsome
[9] = Cmax in rat at 1 mg/kg, iv; format: ADME, organism-based; set-up: dose 1 mg/kg, route intravenous; conditions: in vivo
[10] = Half life in rat at 1 mg/kg, iv; format: ADME, organism-based; set-up: dose 1 mg/kg, route intravenous; conditions: in vivo
[11] = Clearance in rat blood at 1 mg/kg, iv; format: ADME, organism-based; set-up: dose 1 mg/kg, route intravenous; conditions: in vivo
[12] = Volume of distribution in rat at 1 mg/kg, iv; format: ADME, organism-based; set-up: dose 1 mg/kg, route intravenous; conditions: in vivo, read-out: Vdss
[13] = test system: Rattus norvegicus; assay: Increase in gastric emptying in sc dosed rat; format: functional; conditions: Stomach

T1 sequence (Q92847 whole entry): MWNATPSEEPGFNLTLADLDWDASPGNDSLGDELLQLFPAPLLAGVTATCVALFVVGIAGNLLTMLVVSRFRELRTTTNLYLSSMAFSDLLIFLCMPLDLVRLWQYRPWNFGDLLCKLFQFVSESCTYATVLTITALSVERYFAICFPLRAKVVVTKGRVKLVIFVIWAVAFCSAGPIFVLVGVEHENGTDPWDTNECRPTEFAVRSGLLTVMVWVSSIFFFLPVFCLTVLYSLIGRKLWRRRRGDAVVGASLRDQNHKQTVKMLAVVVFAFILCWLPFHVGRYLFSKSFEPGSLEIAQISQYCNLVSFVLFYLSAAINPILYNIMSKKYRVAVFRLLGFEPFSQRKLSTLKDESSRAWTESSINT
Chain of 5-hydroxytryptamine receptor 1B (P28222 whole entry): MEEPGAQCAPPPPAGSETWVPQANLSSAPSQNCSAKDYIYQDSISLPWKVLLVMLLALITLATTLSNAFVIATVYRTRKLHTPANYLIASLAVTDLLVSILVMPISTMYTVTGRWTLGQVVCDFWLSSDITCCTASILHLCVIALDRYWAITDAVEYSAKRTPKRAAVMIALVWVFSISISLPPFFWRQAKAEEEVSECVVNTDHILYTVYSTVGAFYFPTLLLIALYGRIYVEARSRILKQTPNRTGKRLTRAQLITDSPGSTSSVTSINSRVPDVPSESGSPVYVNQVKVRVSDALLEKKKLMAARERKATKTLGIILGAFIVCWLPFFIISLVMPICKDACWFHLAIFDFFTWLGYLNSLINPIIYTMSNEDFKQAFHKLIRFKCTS
Chain of Motilin receptor (Homo sapiens) (O43193 whole entry): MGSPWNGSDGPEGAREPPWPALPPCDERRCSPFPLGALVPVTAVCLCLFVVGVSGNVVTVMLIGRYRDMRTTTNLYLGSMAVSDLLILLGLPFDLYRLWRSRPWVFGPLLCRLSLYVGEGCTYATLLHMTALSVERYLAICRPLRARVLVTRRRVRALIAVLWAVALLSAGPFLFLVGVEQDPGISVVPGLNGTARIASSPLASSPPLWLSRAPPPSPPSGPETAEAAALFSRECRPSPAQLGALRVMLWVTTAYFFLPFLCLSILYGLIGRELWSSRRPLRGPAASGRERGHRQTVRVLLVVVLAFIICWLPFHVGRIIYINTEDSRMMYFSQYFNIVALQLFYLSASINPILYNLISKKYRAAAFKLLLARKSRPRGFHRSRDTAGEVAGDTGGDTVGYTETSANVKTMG

| Compound | EC50 [1] | Intrinsic activity [2] | also measured |
| --- | --- | --- | --- |
| COc1cc2c(cc1N1C[C@@H](C)N(C)[C@@H](C)C1)N(S(=O)(=O)c1ccc3ccccc3c1)CC2 | 39.8 nM | 0.8 |  |
| COc1cc2c(cc1N1C[C@H](C)NC(C)(C)C1)N(S(=O)(=O)c1ccc(-c3ccccn3)s1)CC2 | 0.794 nM | 1 |  |
| COc1cc2c(cc1N1C[C@@H](C)N(C)[C@@H](C)C1)N(S(=O)(=O)c1cccc(Br)c1)CC2 | 126 nM | 0.7 | Ki [3]: 2000 nM |
| COc1cc2c(cc1N1C[C@@H](C)N[C@@H](C)C1)N(S(=O)(=O)c1ccc(-c3ccon3)s1)CC2 | 2.51 nM | 0.9 |  |
| COc1cc2c(cc1N1C[C@@H](C)N[C@@H](C)C1)N(S(=O)(=O)c1ccc(-c3ccccn3)s1)CC2 | 0.158 nM | 0.9 | Activity [4]: inactive; logD [5]: 1.8; solubility [6]: 168 µg/mL (≈ 347 µM); Stability [7]: 4.5 mL/min/g; Stability [8]: 2.6 mL/min/g; Cmax [9]: 250 nM; half-life [10]: 2.3 h; Clearance blood [11]: 64 mL/min/kg; Vd [12]: 8.8 L/kg; ED50 [13]: 0.1 mg/kg |
| COc1cc2c(cc1N1CCNCC1)N(S(=O)(=O)c1ccc(-c3ccccn3)s1)CC2 | 63.1 nM | 0.8 |  |
| COc1cc2c(cc1N1CCN[C@H](C)C1)N(S(=O)(=O)c1ccc(-c3ccccn3)s1)CC2 | 3.98 nM | 1 |  |
| COc1cc2c(cc1N1C[C@@H](C)N[C@@H](C)C1)N(S(=O)(=O)c1ccc3ccccc3c1)CC2 | 0.501 nM | 1 |  |
| COc1cc2c(cc1N1CCN[C@@H](C)C1)N(S(=O)(=O)c1ccc(-c3ccccn3)s1)CC2 | 3.16 nM | 1 |  |
| COc1cc2c(cc1N1C[C@@H](C)N[C@@H](C)C1)N(S(=O)(=O)Cc1cccc(I)c1)CC2 | 31.6 nM | 0.8 |  |
| COc1cc2c(cc1N1C[C@@H](C)NC(C)(C)C1)N(S(=O)(=O)c1ccc(-c3ccccn3)s1)CC2 | 10 nM | 0.8 |  |
| CCOc1ccc(CC(=O)N2CCc3cc(OC)c(N4C[C@@H](C)N(C)[C@@H](C)C4)cc32)cc1Cl | 158 nM | 0.7 | Ki [3]: 12.6 nM |
| COc1cc2c(cc1N1C[C@@H](C)N[C@@H](C)C1)N(S(=O)(=O)CCc1ccccc1Cl)CC2 | 5.01 nM | 0.9 |  |
| COc1cc2c(cc1N1C[C@@H](C)N[C@@H](C)C1)N(S(=O)(=O)c1cccc(-c3ccccn3)c1)CC2 | 20 nM | 0.9 |  |
| COc1cc2c(cc1N1CCNC(C)(C)C1)N(S(=O)(=O)c1ccc(-c3ccccn3)s1)CC2 | 15.8 nM | 0.9 |  |
| COc1cc2c(cc1N1C[C@@H](C)N[C@@H](C)C1)N(S(=O)(=O)c1ccc(-c3ccccn3)cc1)CC2 | 0.2 nM | 1.1 |  |
